From US20250059164A1, “IRAK DEGRADERS AND USES THEREOF” (Kymera Therapeutics, Inc., priority 2023, published 2025)

biological target: T1, IRAK4 (Homo sapiens, UniProt Q9NWZ3); assay: IRAK4 MSD degradation in OCI-LY10; format: cell-based; conditions: OCI-LY10 cells, 24 hrs, Meso Scale Discovery
T1 construct: endogenous in cells; host or cells: OCI-LY10
T1 sequence (Q9NWZ3 1-460): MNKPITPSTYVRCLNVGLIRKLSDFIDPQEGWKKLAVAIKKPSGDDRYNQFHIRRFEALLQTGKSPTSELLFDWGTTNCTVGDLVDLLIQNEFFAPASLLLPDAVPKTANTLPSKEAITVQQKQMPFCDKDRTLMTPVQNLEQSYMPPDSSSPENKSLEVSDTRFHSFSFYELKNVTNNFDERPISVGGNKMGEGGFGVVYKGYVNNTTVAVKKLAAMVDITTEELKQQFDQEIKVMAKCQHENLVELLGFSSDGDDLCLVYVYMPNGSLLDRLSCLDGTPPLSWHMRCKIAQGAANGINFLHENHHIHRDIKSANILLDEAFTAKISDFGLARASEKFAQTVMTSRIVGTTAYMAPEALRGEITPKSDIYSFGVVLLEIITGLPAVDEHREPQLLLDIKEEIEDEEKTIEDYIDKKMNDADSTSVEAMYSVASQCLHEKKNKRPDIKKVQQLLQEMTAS
In short: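 OCI-LY10 cells treated 4 to 24 hours at 37° C. with 8-dose 1:3 series, top 1 to 10 μM. IRAK4 in lysates quantified by MSD sandwich immunoassay (mouse capture, rabbit detection, SULFO-TAG anti-rabbit). DC50 from three-parameter logistic fit.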

Structure (SMILES) | DC50 [nM]
O=C1CCN(c2cncc3c(N4CC(CN5CCN(C[C@H]6CC[C@H](n7cc(NC(=O)c8cnn9ccc(N%10C[C@H]%11C[C@@H]%10CO%11)nc89)c(C(F)F)n7)CC6)CC5)C4)cccc23)C(=O)N1 [I-74] | < 10
COc1nc(NC(=O)c2cccc(C(F)F)n2)cc2cn([C@H]3CC[C@H](CN4CC[C@H](c5cccc6c5n(C)c(=O)n6C5CCC(=O)NC5=O)C(F)(F)C4)CC3)nc12 (stereo partly shown) [I-44] | 10 to 100
COc1ccc2c(c1N1CC[C@H](N(C)C[C@H]3CC[C@H](n4cc(NC(=O)c5cnn6cccnc56)c(C(F)F)n4)CC3)[C@H](F)C1)n(C)c(=O)n2C1CCC(=O)NC1=O (single isomer, unassigned) [I-147] | < 10
CN(C[C@H]1C[C@H](n2cc(NC(=O)c3cnn4ccc(N5C[C@H]6C[C@@H]5CO6)nc34)c(C(F)F)n2)C1)[C@@H]1CCN(c2cccc3c2n(C)c(=O)n3C2CCC(=O)NC2=O)C[C@@H]1F (single isomer, unassigned) [I-59] | < 10
Cc1nn(C2CCC(=O)NC2=O)c2cccc(N3CC(CN4CCN(C[C@H]5CC[C@H](n6cc(NC(=O)c7cnn8ccc(N9C[C@H]%10C[C@@H]9CO%10)nc78)c(C(F)F)n6)CC5)CC4)C3)c12 (stereo partly shown) [I-45] | < 10
O=C1CCC(c2ccc(N3CC(CO[C@H]4CCN(C[C@H]5CC[C@H](n6cc(NC(=O)c7cnn8ccc(N9C[C@H]%10C[C@@H]9CO%10)nc78)c(C(F)F)n6)CC5)C[C@@H]4F)C3)cc2Cl)C(=O)N1 (stereo partly shown) [I-55] | 10 to 100
CN(C[C@H]1CC[C@H](c2nc3cc(C(C)(C)O)c(NC(=O)c4cccc(C(F)(F)F)n4)cc3s2)CC1)[C@H]1CCN(c2cccc3c2n(C)c(=O)n3C2CCC(=O)NC2=O)C[C@H]1F (stereo partly shown) [I-105] | < 10
CN(C[C@H]1CC[C@H](n2cc3cc(NC(=O)c4cccc(C(F)(F)F)n4)c(C(C)(C)O)cc3n2)CC1)[C@@H]1CCN(c2cccc3c2n(C)c(=O)n3C2CCC(=O)NC2=O)C[C@@H]1F (stereo partly shown) [I-69] | < 10
CN(C[C@H]1CC[C@H](c2nc3cc(C(C)(C)O)c(NC(=O)c4cccc(C(F)(F)F)n4)cc3o2)CC1)[C@@H]1CCN(c2cccc3c2n(C)c(=O)n3C2CCC(=O)NC2=O)C[C@@H]1F (stereo partly shown) [I-139] | < 10
COc1cc2nn([C@H]3CC[C@H](CN4CCN(c5cccc6c5c(C)nn6C5CCC(=O)NC5=O)CC4)CC3)cc2cc1NC(=O)c1cncc(C)c1 (stereo partly shown) [I-118] | 10 to 100
CN(C[C@H]1C[C@H](n2cc(NC(=O)c3cnn4ccc(N5C[C@H]6C[C@@H]5CO6)nc34)c(C(F)F)n2)C1)[C@H]1CCN(c2cccc3c2n(C)c(=O)n3C2CCC(=O)NC2=O)C[C@H]1F (single isomer, unassigned) [I-60] | < 10
CN(C[C@H]1CC[C@H](n2cc(NC(=O)c3cnn4ccc(N5C[C@H]6C[C@@H]5CO6)nc34)c(C(F)F)n2)CC1)[C@@H]1CCN(c2cccc3c2n(C)c(=O)n3C2CCC(=O)NC2=O)C[C@@H]1F (single isomer, unassigned) [I-29] | < 10
O=C1CCC(c2noc3c(NC(=O)CN4CCN(C[C@H]5CC[C@H](n6cc7cc(NC(=O)c8cccc(C(F)(F)F)n8)ncc7n6)CC5)CC4)cccc23)C(=O)N1 (stereo partly shown) [I-71] | 10 to 100
CN(C[C@H]1CC[C@H](n2cc(NC(=O)c3cnn4ccc(N5CCCC5)nc34)c(C(F)F)n2)CC1)[C@@H]1CCN(c2cccc3c2n(C)c(=O)n3C2CCC(=O)NC2=O)C[C@H]1F (stereo partly shown) [I-40] | < 10
COc1cc2nn([C@H]3CC[C@H](CN(C)[C@@H]4CCN(c5cccc6c5n(C)c(=O)n6C5CCC(=O)NC5=O)C[C@H]4F)CC3)cc2cc1NC(=O)c1cccc(C(F)(F)F)n1 (stereo partly shown) [I-90] | < 10
CN(C[C@H]1C[C@@H](n2cc(NC(=O)c3cnn4ccc(N5C[C@H]6C[C@@H]5CO6)nc34)c(C(F)F)n2)C1)[C@H]1CCN(c2cccc3c2n(C)c(=O)n3C2CCC(=O)NC2=O)C[C@H]1F (stereo partly shown) [I-65] | < 10
COc1ccc2c(c1N1CC[C@@H](N(C)C[C@H]3CC[C@H](n4cc(NC(=O)c5cnn6cccnc56)c(C(F)F)n4)CC3)[C@@H](F)C1)n(C)c(=O)n2C1CCC(=O)NC1=O (single isomer, unassigned) [I-153] | < 10
Cc1nn(C2CCC(=O)NC2=O)c2cccc(N3CC(O)(CN4CCN(C[C@H]5CC[C@H](n6cc(NC(=O)c7cnn8ccc(N9C[C@H]%10C[C@@H]9CO%10)nc78)c(C(F)F)n6)CC5)CC4)C3)c12 (stereo partly shown) [I-19] | < 10
CN(C[C@H]1CC[C@H](n2cc(NC(=O)c3cnn4ccc(N5CCCC5)nc34)c(C(F)F)n2)CC1)[C@H]1CCN(c2cccc3c2n(C)c(=O)n3C2CCC(=O)NC2=O)C[C@@H]1F (stereo partly shown) [I-22] | < 10

Now from value to compound:

DC50 [nM] | Structure (SMILES)
> 200 | COc1cc(C(=O)Nc2ccc3nn([C@H]4CC[C@H](CN5CC[C@@H](c6cccc7c6n(C)c(=O)n7C6CCC(=O)NC6=O)C(F)(F)C5)CC4)cc3c2)nc(C(F)(F)F)c1 (stereo partly shown) [I-401]
< 10 | Cn1c(=O)n(C2CCC(=O)NC2=O)c2ccc(F)c([C@H]3CCN(C[C@H]4CC[C@H](n5cc6cc(NC(=O)c7cncc(C(F)(F)F)n7)ccc6n5)CC4)CC3(F)F)c21 (single isomer, unassigned) [I-377]
< 10 | Cn1nc(C2CCC(=O)NC2=O)c2cccc([C@H]3CCN(C[C@H]4CC[C@H](n5cc6cc(NC(=O)c7cncc(C(F)(F)F)n7)ccc6n5)CC4)CC3(F)F)c21 (single isomer, unassigned) [I-380]
< 10 | COc1ccc2c(c1N1CCC3(CCN(C[C@H]4CC[C@H](n5cc6cc(NC(=O)c7cncc(C#N)c7)c(C(C)(C)O)cc6n5)CC4)CC3(F)F)CC1)n(C)c(=O)n2C1CCC(=O)NC1=O (stereo partly shown) [I-397]
> 200 | CN1C(=O)CCC(n2c(=O)n(C)c3c([C@@H]4CCN(C[C@H]5CC[C@H](n6cc7cc(NC(=O)c8cncc(C(F)(F)F)n8)ccc7n6)CC5)C[C@H]4F)cccc32)C1=O (stereo partly shown) [I-382]
10 to 100 | Cc1nn(C2CCC(=O)NC2=O)c2cccc([C@H]3CCN(C[C@H]4CC[C@H](n5cc6cc(NC(=O)c7cncc(C(F)(F)F)n7)ncc6n5)CC4)C[C@@H]3F)c12 (single isomer, unassigned) [I-341]
> 200 | COc1cc2nc(C3CCN(CC4(F)CCN(c5cccc6c5n(C)c(=O)n6C5CCC(=O)NC5=O)CC4)CC3)sc2cc1NC(=O)c1cncc(C#N)c1 (stereo not shown) [I-157]
10 to 100 | Cn1c(=O)n(C2CCC(=O)NC2=O)c2cccc([C@@H]3CCN(C[C@H]4CC[C@H](n5cc6cc(NC(=O)c7cccnn7)ccc6n5)CC4)C[C@H]3F)c21 (stereo partly shown) [I-164]
> 200 | Cn1c(=O)n(C2CCC(=O)NC2=O)c2cccc(N3CC(OC[C@H]4CC[C@H](n5cc6cc(NC(=O)c7cccc(C(F)(F)F)n7)ccc6n5)CC4)C3)c21 (stereo partly shown) [I-242]
10 to 100 | Cn1c(=O)n(C2CCC(=O)NC2=O)c2ccc(F)c(N3CCC4(CCN(C[C@H]5CC[C@H](n6cc7cc(NC(=O)c8cncc(C(F)(F)F)n8)ccc7n6)CC5)CC4(F)F)CC3)c21 (stereo partly shown) [I-399]
10 to 100 | CN(C[C@H]1CC[C@H](c2cc3cc(NC(=O)c4cncc(C(F)(F)F)n4)ccn3n2)CC1)[C@H]1CCN(c2cccc3c2n(C)c(=O)n3C2CCC(=O)NC2=O)C[C@@H]1F (single isomer, unassigned) [I-292]
< 10 | COc1ccc2c(c1N1CC[C@H](N(C)C[C@H]3CC[C@H](n4cc(NC(=O)c5cnn6cccnc56)c(C(F)F)n4)CC3)C(F)(F)C1)n(C)c(=O)n2C1CCC(=O)NC1=O (single isomer, unassigned) [I-289]
< 10 | COc1ccc2c(c1N1CC3(CCN(C[C@H]4CC[C@H](n5cc6cc(NC(=O)c7cncc(C#N)c7)c(C(C)(C)O)cc6n5)CC4)CC3(F)F)C1)n(C)c(=O)n2[C@H]1CCC(=O)NC1=O (single isomer, unassigned) [I-234]
< 10 | Cn1c(=O)n(C2CCC(=O)NC2=O)c2ccc(F)c([C@@H]3CCN(C[C@H]4CC[C@H](n5cc6cc(NC(=O)c7cncc(C(F)(F)F)n7)ccc6n5)CC4)CC3(F)F)c21 (single isomer, unassigned) [I-376]
10 to 100 | Cn1nc(C2CCC(=O)NC2=O)c2cccc([C@H]3CCN(C[C@H]4CC[C@H](n5cc6cc(NC(=O)c7cncc(C(F)(F)F)n7)ncc6n5)CC4)C[C@@H]3F)c21 (single isomer, unassigned) [I-359]
> 200 | COc1cc2nc([C@H]3CC[C@H](CN4CC[C@@H](c5cccc6c5n(C)c(=O)n6C5CCC(=O)NC5=O)[C@H](F)C4)CC3)sc2cc1NC(=O)c1cncc(C#N)c1 (stereo partly shown) [I-277]
< 10 | COc1cc2nc([C@H]3CC[C@H](CN(C)[C@H]4CCN(c5cccc6c5n(C)c(=O)n6C5CCC(=O)NC5=O)C[C@H]4F)CC3)cn2cc1NC(=O)c1cncc(C(F)(F)F)n1 (single isomer, unassigned) [I-333]
> 200 | Cn1c(=O)n(C2CCC(=O)NC2=O)c2cccc(N3CC(OC[C@H]4CC[C@H](n5cc6cc(NC(=O)c7cccc(C(F)(F)F)c7)ccc6n5)CC4)C3)c21 (stereo partly shown) [I-251]
10 to 100 | CN(C[C@H]1CC[C@H](c2nc3cc(C(C)(C)O)c(NC(=O)c4cccc(C(F)(F)F)n4)cc3s2)CC1)[C@H]1CCN(c2cccc3c2n(C)c(=O)n3C2CCC(=O)NC2=O)C[C@@H]1F (stereo partly shown) [I-239]
> 200 | CN1C(=O)CCC(n2c(=O)n(C)c3c([C@@H]4CCN(C[C@H]5CC[C@H](n6cc7cc(NC(=O)c8cncc(C(F)(F)F)n8)ccc7n6)CC5)CC4(F)F)cccc32)C1=O (stereo partly shown) [I-378]
> 200 | Cc1cc(C(=O)Nc2ccc3nn([C@H]4CC[C@H](CN5CC[C@@H](c6cccc7c6n(C)c(=O)n7C6CCC(=O)NC6=O)C(F)(F)C5)CC4)cc3c2)nc(C(F)(F)F)c1 (stereo partly shown) [I-402]
